Experimental data taken from US12486214B2, “Rosmarinic acid derivative, Rosmarinic acid-derived particles, composition containing same for treating inflammatory disease” (KOREA ADVANCED INSTITUTE OF SCIENCE AND TECHNOLOGY, priority 2020, dated 2025).
Read-outs that look alike come from different tables or passages of the source.

Assays:
[1] = in vivo; cited from earlier work
[2] = Solubility in distilled water or DMSO; type: physicochemical
[3] = free RA, rats, intravenous 0.625 mg/kg; cited from earlier work
[4] = Particle size, zeta potential and morphology (DLS/PCS, TEM); type: physicochemical
Method: PEG-RA (20 mg) was dissolved in 4 mL of a 1:3 mixture (v/v) of chloroform:methanol and mixed for several minutes. The organic solvent was then removed by rotary vacuum evaporation and was further dried under a nitrogen flow for 30 minutes to yield a film layer. The film layer was suspended in 1 mL of PBS (137 mM NaCl, 2.7 mM KCl, 10 mM Na2HPO4, 2 mM KH2PO4, pH 7.4) and the resulting micelle suspension was sonicated in a bath sonicator (50 W, 40 kHz) for 10 minutes to yield uniform-sized RANPs. The micelle solution was maintained at 4° C., and directly used in the experiments below. The particle size of RANPs was analyzed by photon correlation spectroscopy (PCS) using a Nanosizer ZS90 (Malvern Instrument Ltd., Malvern, UK) equipped with 4.0 mW HeNe laser and an avalanche photodiode detector operating at 633 nm. Zeta potential was also measured at 25° C. in aqueous solutions (pH 7) by using the same equipment. The morphological characteristics of RANPs were examined using negative-staining transmission electron microscopy (TEM). Briefly, a drop of the diluted sample was placed on copper grids coated with a carbon film, stained with 0.5% w/v uranyl acetate solution, and dried at room temperature. The grids were imaged using a Tecnai F20 (FEI Co., Hillsboro, OR, USA) transmission electron microscope. […]
The hydrodynamic size and zeta potential of RANPs in phosphate buffer solution (pH 7.4), measured by dynamic light scattering (DLS), were 67.5±3.5 nm and −33.70 mV, respectively, indicating the exposure of the PEG layer on the surface of nanoparticles (FIG. 1C and Table 1).
The product was then analyzed through UV-Vis spectrometry using Beckman Coulter DU-800 UV-Vis spectrometer. The particle size of the HA-RA nanoparticles was obtained by measuring the hydrodynamic size of HA-RA nanoparticles in phosphate buffer solution (pH 7.4), measured by dynamic light scattering (DLS). […]
The LMWC-RA of the present disclosure was prepared into nanoparticles by the method shown in Example 8, and then the hydrodynamic size and zeta potential value thereof were measured.

[5] = tested on: inflammatory bowel disease model mice; assay: Effect of oral HA-RANPs (and HA, RA, 5-ASA) on inflammatory bowel disease model mice (3% DSS); type: in vivo; details: 5 times: HA-RANPs 100 mg/kg, HA 85 mg/kg, RA 15 mg/kg, 5-ASA 100 mg/kg
Method: To investigate the antiinflammatory therapeutic efficacy of HA-RANPs in inflammatory bowel disease model mice, the present inventors performed the following tests. By using the inflammatory bowel disease model in which 3% DSS and drinking water were administered to mice (C57BL/6, 6 weeks old, female, 7-day acclimatization) for 5 days, three dose concentrations (20, 50, and 100 mg/kg) of HA-RANPs were orally administered for 5 days (D+1 to D+5, one time/day) for a total of 5 times. The degree of disease progression and the antiinflammatory effect of HA-RANPs were examined through weight changes (measured daily) of all groups of mice and the extraction and tests of the large intestine on the last day.
In addition, the myeloperoxidase (MPO) activity and inflammatory cytokine expression were examined through ELISA assay. Specifically, the same portion of each mouse colon sample was cut, pre-treated, and minced, and then a predetermined amount thereof was centrifuged to obtain a supernatant, and thereafter, the supernatant was subjected to the following assay. The MPO activity is an index to evaluate the infiltration of neutrophils into the inflamed tissue. The measurement of MPO activity is disclosed in Grisham et al. (1990) or the like.
The change in extent of inflammation in the colon was investigated by histopathological examination, that is, examining the degrees of structural integrity loss, crypt destruction, and mucosal surface changes.
The present inventors evaluated the effect of the HA-RANPs of the present disclosure on inflammatory bowel disease model mice through the comparison with HA and RA. The inflammatory bowel disease model was induced by the same method as in the above-described experiment, wherein 100 mg/kg of HA-RANPs as a drug and the equal amounts of Free HA (85 mg/kg), RA (15 mg/kg), and 5-amino salicylic acid (5-ASA) (100 mg/kg) as positive drug controls were administered orally (a total of 5 times, one time/day, D+1 to D+5).

Row | solubility ([2]; DMSO, organic solvent or mixture, read-out: solubility in DMSO) [mg/mL] | dissolution in distilled water ([2]; at 5 mg/ml) | solubility ([2]; distilled water, water, read-out: solubility in distilled water) [mg/mL] | Conductivity [4] [mS/cm] | Mobility [4] [μm cm/Vs] | Zeta potential [4] [mV] | Structure (SMILES) | time within which RA is usually excreted from the body [1] [min] | area under the curve (AUC) [3] [ng·h/mL] | circulation (or elimination) half-life (t1/2) [3] [min] | mean residence time (MRT) [3] [min] | MPO activity and pro-inflammatory cytokine levels [5] | body weight loss and colon length shortening on day 10 [5] | colon histopathology (H&E stained biopsy) [5] | expression of tight junction-related genes ZO-1, claudin-1, and occludin in colon [5]
1 | ≤ 25 | only partially dissolved | ≤ 0.041 | 24.10 | −1.217 | −15.53 | O=C(/C=C/c1ccc(O)c(O)c1)O[C@H](Cc1ccc(O)c(O)c1)C(=O)O [Rosmarinic acid (RA), rosmarinic acid] | ≤ 30 | 4090 | 42.9 | 50.1 | somewhat relieved | slight efficacy | slightly relieved | improved
2 |  |  |  |  |  |  | Nc1ccc(O)c(C(=O)O)c1 [5-ASA, 5-amino salicylic acid] |  |  |  |  | somewhat relieved | significantly low | slightly relieved | improved
